Experiment [1] relates to EBV positive human lymphoma HG-3 cells. Description: Alamar blue proliferation assay in HG-3 cells. The class given is cell-based. As to conditions: 72 hours; for anti-proliferative effect on HG-3 cells (in words): Alamar blue, FIG. 1 and Table 1; for IC50: Homo sapiens, concentration range 0.01-10 μM, Alamar blue assay, read-out: Anti-proliferative IC50 values. How it is done: (§1) One million human EBV positive lymphoma cell lines HG3 and LCL070903 (Rosén et al., 2012) were cultured in RPMI1640 media supplemented with 10% FCS. […] Following treatment cells were harvested and washed with 1× PBS. Total RNA was extracted as described below.
(§2) Alamarblue® and PrestoBlue proliferation assays were performed to determine the growth kinetics of EBV inhibitor treated cells. Alamar blue® and PrestoBlue consists of a cell permeable substrate resazurin. In metabolically active and proliferating cells, resazurin is converted to resorufin due to an intrinsic reducing power of live cells and produces a red fluorescence. Therefore production of resorufin serves as an indicator of the viability of the cell population.
(§3) Proliferation assays were performed by seeding 5000 cells/well in a 96 well plate. […] Each concentration was tested in 4 replicates. To determine the growth kinetics, 10 μl of Alamar blue® or PrestoBlue (Invitrogen) was added to each well and incubated for 4 hours. Readout was taken using Tecan F500 (Tecan) multiplate reader or Varioskan LUX (ThermoFisher) multiplate reader.
In order to determine anti-cancer activity of compounds in oncoviral driven cells, an EBV infected human Chronic Lymphocytic Leukemia cell line HG-3 was used (Rosen et al., 2012). In brief, HG-3 cells were plated in a 96 well plate and treated with an increasing concentration of compounds.
A general note: The colour change of resazurin is a common sign of viable cells or microbes.

Experiment [2] deals with BMI1 (EBV target gene). Description: EBV target gene downregulation (qPCR) in HG-3 cells: BMI1. As to conditions: 48 hours; for inhibition at 10 µM: Homo sapiens, mRNA by qPCR, Table 5; for potency in downregulating EBV pathway (BMI1) compared with 6-(4-tert-butylphenoxy)pyridin-3-amine (in words): 10 μM, qRT-PCR, FIG. 4. The class given is cell-based, human. On the procedure: EBV positive human B HG-3 cells were treated with 10 μM of the mentioned compounds for 48 hours. Following treatment, total RNA was extracted and mRNA expression analysed by qRT-PCR.
(§4) One million human EBV positive lymphoma cell lines HG3 and LCL070903 (Rosén et al., 2012) were cultured in RPMI1640 media supplemented with 10% FCS. For RNA expression analysis cells were treated with compounds at 10 μM concentration and for proliferation assay cells were treated at a concentration range of 0.01-100 μM. Following treatment cells were harvested and washed with 1× PBS. Total RNA was extracted as described below.
(§5) Total RNA was extracted from cells using TRIzol® extraction kit (Invitrogen). Briefly, 1×10^6 cells were washed with ice-cold 1× PBS and lysed in 1 ml of TRIzol® solution for 5 minutes at room temperature to dissociate nucleoprotein complexes. Lysed cells were then treated with 200 μl of chloroform and shaked vigorously for 15-30 seconds and incubated at room temperature for 2-3 minutes. The samples were centrifuged at 14000 rpm using Eppendorf table top centrifuge for 10 minutes at 4° C. Following centrifugation, upper aqueous phase was transferred to new eppendorf tubes. To precipitate total RNA 500 μl of […] was added to the separated aqueous phase and incubated at room temperature for 10 minutes. A RNA pellet was obtained by centrifuging the samples at 4° C. for 10 minutes. RNA pellet obtained was washed with 1 ml ice cold 75% ethanol and spun down at 14000 rpm at 4° C. RNA pellet was dried off of excess of ethanol and resuspended in 40 IA DPEC water.
(§6) Total RNA extracted from the cell was used to synthesize cDNA by reverse transcription reaction. Reverse transcription was performed according to one of the two following protocols.
(§7) In first protocol, SuperScript™ RT (Invitrogen) was used for reverse transcription reaction. RNA concentration was measured using NanoDrop®ND-1000 spectrophotometer (Witec AG) and 500 ng of total RNA was mixed with a 10 mM mix of dNTPs and 100 ng of random primers. The reaction mix was incubated at 65° C. for 5 minutes and quickly incubated on ice for 1 minute. Following incubation on ice, 5× first strand buffer and 0.1M DTT were added and mix was incubated for 2 minutes at 25° C. To start the reverse transcription reaction, 200U of SuperScrip™ II RT was added to the reaction mix and incubated at 42° C. for 50 minutes. The reaction was stopped by incubating the reaction mix at 75° C. for 15 minutes.
(§8) In second protocol, reverse transcription was performed using PrimeScript RT Master Mix (Takara). RNA concentration was measured using NanoDrop®ND-1000 spectrophotometer (Witec AG) and 1 μg of total RNA was mixed with 4 μL 5X PrimeScript RT Master Mix in a total reaction volume of 20 μL. The reaction mix was incubated at 37° C. for 15 minutes followed by heat inactivation at 85° C. for 5 seconds.
(§9) QRT-PCR was carried out using 7900 HT Fast Real-Time PCR system (Applied Biosystems) or QuantStudio 3 system (ThermoFisher). Briefly, 12.5 ng of template cDNA was used with a primer concentration of 0.5 μM each and lx SYBR Green dye in a final volume of 10 μL in a 96 well or 384 well plate format.
(§10) Upon infection of human cells, EBV is known to induce cancerous transformation of cells via upregulation of host as well as viral genes (e.g LMP1, EBNA2, BATF1, BMI1 and CD21). To determine the ability of compounds to downregulate EBV driven gene expression, HG-3 and LCL070903 cells were treated with selected compounds and percentage inhibition of EBV target genes was determined by quantitative PCR. As shown in Table 5 and Table 6, compounds down regulate EBV target genes such as BMI1 in HG-3 and LCL070903 cells, respectively (FIGS. 3 and 4).
In general terms: Real-time PCR tracks product formation cycle by cycle.

In experiment [3] the test system is BMI1 (EBV target gene). Description: EBV target gene downregulation (qPCR) in LCL070903 cells: BMI1. It is filed as cell-based, human. As to conditions: 48 hours; for inhibition at 10 µM: Homo sapiens, mRNA by qPCR, Table 6; for potency in downregulating EBV pathway (BMI1) compared with 6-(4-tert-butylphenoxy)pyridin-3-amine (in words): 10 μM, qRT-PCR, FIG. 3. How it is done: EBV positive human B LCL070903 cells were treated with 10 μM of the mentioned compounds for 48 hours. Following treatment, total RNA was extracted and mRNA expression analysed by qRT-PCR.
as §4, §5, §6, §7, §8, §9, §10

The subject of experiment [4] is NOTCH target gene HES1. As to the kind of experiment: NOTCH target gene HES1 downregulation in RPMI 8402 cells. On the set-up: Percentage inhibition of NOTCH target gene HES1: concentration or dose not given beside the values. It is filed as cell-based, human. To be noted: RPMI 8402 cells (NOTCH1 positive, EBV negative). How it is done: as §5, §6, §9
(§11) To determine the ability of compounds to downregulate EBV driven gene expression, HG-3 cells were treated with selected compounds and percentage inhibition of EBV target genes was determined by quantitative PCR. […] To further determine the anti-oncoviral specificity of compounds, these compounds were tested for their ability to downregulate a NOTCH target gene HES1 in a NOTCH1 positive (EBV negative) human leukemic cell line RPMI8402.

For experiment [5], the system named is EBV positive human B HG-3 cells. Description: PrestoBlue proliferation assay in HG-3 cells. As to conditions: 72 hours; for IC50: Homo sapiens, concentration range 0.03-100 μM, PrestoBlue assay, read-out: Anti-proliferative IC50 values (μM) in HG-3 cells; for anti-proliferative effect on HG-3 cells (in words): PrestoBlue, FIG. 2 and Table 4. The class given is cell-based. How it is done: as §1, §2, §3
In brief, HG-3 cells were plated in a 96 well plate and treated with an increasing concentration of compounds.

The subject of experiment [6] is EBNA2. As to the kind of experiment: EBV target gene downregulation (qPCR) in HG-3 cells: EBNA2. The class given is cell-based. As to conditions: Homo sapiens, mRNA by qPCR, Table 5. On the procedure:
as §4, §5, §6, §7, §8, §9, §11, §10

SMILES strings stand for the structures.

One may read the IC50 as the midpoint of a concentration-inhibition curve. Regarding `CC(C)(C)c1ccc(Oc2ccc(NCC#N)cn2)cc1` [Example 6, 2-((6-(4-(tert-Butyl)phenoxy)pyridin-3-yl)amino)acetonitrile], in experiment [1], the “anti-proliferative effect on HG-3 cells (in words)” value (“anti-proliferative effect” below) is recorded as “demonstrate anti-proliferative effect” and the 50% inhibitory concentration (IC50) came to 8 µM.
For orientation: inhibition means how much of the control response was suppressed. With `CC(C)(C)c1ccc(Oc2ccc(N)cn2)cc1` [6-(4-tert-Butylphenoxy)pyridin-3-amine, reference compound], the inhibition at 10 µM in experiment [2] and in experiment [3] was less than 0% throughout. The half-inhibitory concentration (IC50) in experiment [1] and in experiment [5] was greater than 10 µM each time. In addition, in experiment [4], the “Percentage inhibition of NOTCH target gene HES1” value came to 80%. In addition, in experiment [4], the “downregulation of NOTCH target gene HES1 (in words)” value is recorded as “effectively downregulates HES1”.
Take `Cc1cc(Oc2ccc(-c3ccccc3)cc2)ncc1NCc1cccnc1` [Example 22, 6-([1,1′-Biphenyl]-4-yloxy)-4-methyl-N-(pyridin-3-ylmethyl)pyridin-3-amine]: in experiment [2], the “potency in downregulating EBV pathway (BMI1) compared with 6-(4-tert-butylphenoxy)pyridin-3-amine (in words)” value is “enhanced potency” and 10 µM produced 30% inhibition. Besides, in experiment [3], the “potency in downregulating EBV pathway (BMI1) compared with 6-(4-tert-butylphenoxy)pyridin-3-amine (in words)” value is recorded as “enhanced potency” and the inhibition at 10 µM was 18%. Also, in experiment [5], the “anti-proliferative effect” value was “demonstrate anti-proliferative effect” and the IC50 is 1.5 µM.
On to `CC(C)(C)c1ccc(Oc2ccc(NCc3cccnc3)cc2F)cc1` [Example 18, 4-(4-(tert-Butyl)phenoxy)-3-fluoro-N-(pyridin-3-ylmethyl)aniline], for which, in experiment [2], the “potency in downregulating EBV pathway (BMI1) compared with 6-(4-tert-butylphenoxy)pyridin-3-amine (in words)” value is “enhanced potency” and at 10 µM the inhibition was 10%. For the same compound, in experiment [3], the “potency in downregulating EBV pathway (BMI1) compared with 6-(4-tert-butylphenoxy)pyridin-3-amine (in words)” value is given as “enhanced potency” and 10 µM produced 24% inhibition.
`Fc1cc(NCc2cccnc2)ccc1Oc1ccc(-c2ccccn2)cc1` [Example 25, 3-Fluoro-4-(4-(pyridin-2-yl)phenoxy)-N-(pyridin-3-ylmethyl)aniline]: the “potency in downregulating EBV pathway (BMI1) compared with 6-(4-tert-butylphenoxy)pyridin-3-amine (in words)” value in experiment [2] and in experiment [3] was “enhanced potency” each time. Further, the inhibition at 10 µM in experiment [2] was found to be 19%; in experiment [3], 46%; in experiment [6], 1%. Moreover, the “anti-proliferative effect” value in experiment [5] is “demonstrate anti-proliferative effect”. The IC50 in experiment [5] is 6.7 µM.
On to `CC(C)(C)c1ccc(Oc2ccc(NCc3nnco3)cn2)cc1` [Example 8, N-((1,3,4-Oxadiazol-2-yl)methyl)-6-(4-(tert-butyl)phenoxy)pyridin-3-amine], for which, in experiment [1], the “anti-proliferative effect” value was “demonstrate anti-proliferative effect” and the concentration for half-maximal inhibition (IC50) is 7.9 µM.
For the compound `Fc1ccc(-c2ccc(Oc3ccc(NCc4cccnc4)cn3)cc2)cc1` [Example 24, 6-((4′-Fluoro-[1,1′-biphenyl]-4-yl)oxy)-N-(pyridin-3-ylmethyl)pyridin-3-amine], the “potency in downregulating EBV pathway (BMI1) compared with 6-(4-tert-butylphenoxy)pyridin-3-amine (in words)” value in experiment [2] and in experiment [3] was “enhanced potency” in each case. Besides, the inhibition at 10 µM in experiment [2] is 15%; in experiment [3], 61%; in experiment [6], 7%.
For the compound `CC(C)(C)c1ccc(Oc2ccc(NCc3nnc(N)o3)cn2)cc1` [Example 9, 5-(((6-(4-(tert-Butyl)phenoxy)pyridin-3-yl)amino)methyl)-1,3,4-oxadiazol-2-amine], in experiment [1], the “anti-proliferative effect” value was “demonstrate anti-proliferative effect” and the half-inhibitory concentration (IC50) was 6.3 µM.
The matching figures for `CC(C)(C)c1ccc(Oc2ccc(NCc3nn[nH]n3)cn2)cc1` [Example 7, N-((2H-Tetrazol-5-yl)methyl)-6-(4-(tert-butyl)phenoxy)pyridin-3-amine]: “demonstrate anti-proliferative effect” and 7.1 µM.
As to `Fc1ccc(-c2ccc(Cc3ccc(NCc4cccnc4)cc3)cc2)cc1` [Example 32, 4-((4′-Fluoro-[1,1′-biphenyl]-4-yl)methyl)-N-(pyridin-3-ylmethyl)aniline], the “potency in downregulating EBV pathway (BMI1) compared with 6-(4-tert-butylphenoxy)pyridin-3-amine (in words)” value in experiment [2] and in experiment [3] was “enhanced potency” throughout. Moreover, the inhibition at 10 µM in experiment [2] came out at 13%; in experiment [3], 45%.
In the case of `Fc1cc(NCc2cccnc2)ccc1Oc1ccc(-c2cccnc2)cc1` [Example 26, 3-Fluoro-4-(4-(pyridin-3-yl)phenoxy)-N-(pyridin-3-ylmethyl)aniline], the “potency in downregulating EBV pathway (BMI1) compared with 6-(4-tert-butylphenoxy)pyridin-3-amine (in words)” value in experiment [2] and in experiment [3] was “enhanced potency” each time. For the same compound, the figures for the inhibition at 10 µM in experiment [2] and in experiment [3] were 11% and 53%, respectively.
Consider `COC(c1ccc(NCc2cccnc2)cc1)c1ccc(-c2ccc(F)cc2)cc1` (stereo not drawn) [Example 31, 4-((4′-Fluoro-[1,1′-biphenyl]-4-yl)(methoxy)methyl)-N-(pyridin-3-ylmethyl)aniline], for which the “potency in downregulating EBV pathway (BMI1) compared with 6-(4-tert-butylphenoxy)pyridin-3-amine (in words)” value in experiment [2] and in experiment [3] was “enhanced potency” throughout. Moreover, the figures for the inhibition at 10 µM in experiment [2] and in experiment [3] were 24% and 48%, respectively.

The values are drawn from US20220185793A1, “COMPOUNDS FOR THE TREATMENT OF ONCOVIRUS INDUCED CANCER AND METHODS OF USE THEREOF” (Cellestia Biotech AG, priority 2019, published 2022).
